Values of other authors as cited in PMC6838683, “Discovery of Human Signaling Systems: Pairing Peptides to G Protein-Coupled Receptors” (Cell, 2019).
Read-outs that look alike come from different tables or passages of the source.

Test system: human GPCRs
Design: method as in Guide to Pharmacology database
Conditions: max reported value, ref Guide to Pharmacology database, cited from earlier work
From the text: Supplement mmc1.xlsx, sheet "HumanGPCRLigands" | column: pKi_value; pKd_value; pEC50_value; pIC50_value

[1] = receptor p2ry2_human (P2RY2), P2Y receptors
[2] = receptor p2ry4_human (P2RY4), P2Y receptors
[3] = receptor p2y11_human (P2RY11), P2Y receptors
[4] = receptor gp183_human (GPR183), Class A orphans
[5] = receptor LTB4R2 (lt4r2_human, Q9NPC1)
[6] = receptor LTB4R (lt4r1_human, Q15722)
[7] = receptor p2ry1_human (P2RY1), P2Y receptors
[8] = receptor p2y13_human (P2RY13), P2Y receptors
[9] = receptor grm2_human (GRM2, Q14416)
[10] = receptor grm3_human (GRM3, Q14832)
[11] = receptor grm7_human (GRM7, Q14831)
[12] = receptor grm8_human (GRM8, O00222)
[13] = receptor CYSLTR1 (cltr1_human, Q9Y271)
[14] = receptor CYSLTR2 (cltr2_human, Q9NS75)
[15] = receptor fpr2_human (FPR2, P25090)
[16] = receptor PTAFR (ptafr_human, P25105)
[17] = receptor PTGDR2 (pd2r2_human, Q9Y5Y4)
[18] = receptor PTGDR (pd2r_human, Q13258)
[19] = receptor pe2r2_human (PTGER2), Prostanoid receptors
[20] = receptor pe2r4_human (PTGER4), Prostanoid receptors
[21] = receptor pf2r_human (PTGFR), Prostanoid receptors
[22] = receptor pe2r1_human (PTGER1), Prostanoid receptors
[23] = receptor pe2r3_human (PTGER3), Prostanoid receptors
[24] = receptor ta2r_human (TBXA2R), Prostanoid receptors

In the case of O=c1ccn([C@@H]2O[C@H](CO[P@@](=O)(O)O[P@@](=O)(O)OP(=O)(O)O)[C@@H](O)[C@H]2O)c(=O)[nH]1 (stereo in doubt) [uridine triphosphate], the pEC50_value [1] is given as 8.1, the pEC50_value [2] is given as 6.3 and the pEC50_value (receptor p2ry6_human (P2RY6), P2Y receptors) is given as 5.2. The pEC50_value [3] was 5.2.

In the case of CCCCCC(O)CC(=O)O (stereo not drawn) [3-hydroxyoctanoic acid], the pEC50_value (receptor hcar3_human (HCAR3), Hydroxycarboxylic acid receptors) is given as 5.1.

In the case of CCCCCCCC/C=C\C/C=C\C=C/C(=O)CCCC(=O)O [5-oxo-C20:3], the pEC50_value (receptor OXER1 (oxer1_human, Q8TDS5)) is listed as 8.

In the case of C[C@H](CCCC(C)(C)O)[C@H]1CC[C@H]2[C@@H]3[C@H](O)C=C4C[C@@H](O)CC[C@]4(C)[C@H]3CC[C@]12C [7α,25-dihydroxycholesterol], the pEC50_value [4] is given as 9.9 and the pIC50_value [4] is given as 9.6.

In the case of CCCCCC(O)C=CC=CCC=CCCCC(=O)O (stereo not drawn) [12-hydroxyheptadecatrienoic acid], the pEC50_value [5] is listed as 7.7 and the pIC50_value [5] is listed as 8.6.

In the case of C[C@]12CC[C@@H]3c4ccc(O)cc4CC[C@H]3[C@@H]1CC[C@@H]2O [17β-estradiol], the pKi_value (receptor gper1_human (GPER1), Estrogen (G protein-coupled) receptors) is listed as 8.5.

In the case of O=C(O)CCC[C@H](O)\C=C/C=C/C=C/[C@H](O)C/C=C\CCCCCO [20-hydroxy-LTB4], the pKi_value [6] is listed as 8.1.

In the case of NC[C@H](O)c1ccc(O)c(O)c1 [(-)-noradrenaline], the pKi_value (receptor ada1a_human (ADRA1A, P35348)) is listed as 6.4, the pKi_value (receptor ada1b_human (ADRA1B, P35368)) is listed as 6.2 and the pKi_value (receptor ada1d_human (ADRA1D, P25100)) is listed as 7.4. The pKi_value (receptor ada2a_human (ADRA2A, P08913)) was 7.4, the pKi_value (receptor ada2b_human (ADRA2B, P18089)) was 6 and the pKi_value (receptor ada2c_human (ADRA2C, P18825)) was 6.8. For the same molecule, the pKi_value (receptor adrb1_human (ADRB1, P08588)) was 6, the pKi_value (receptor adrb2_human (ADRB2, P07550)) was 4.8 and the pKi_value (receptor adrb3_human (ADRB3, P13945)) was 6.3.

For Nc1ncnc2c1ncn2[C@@H]1O[C@H](COP(=O)(O)OP(=O)(O)O)[C@@H](O)[C@H]1O [ADP], the pIC50_value [7] is listed as 7.2, the pKi_value (receptor p2y12_human (P2RY12), P2Y receptors) is listed as 5.9 and the pIC50_value [8] is listed as 6.5.

In the case of Nc1ncnc2c1ncn2[C@@H]1O[C@H](COP(=O)(O)OP(=O)(O)OP(=O)(O)O)[C@@H](O)[C@H]1O [ATP], the pIC50_value [7] is listed as 7.8, the pKi_value [7] is listed as 4.8 and the pEC50_value [1] is listed as 7.1. The pEC50_value [2] was 5.4, the pKd_value [2] was 6.2 and the pEC50_value [3] was 5.6. For the same molecule, the pIC50_value [8] was 5.4.

For N[C@@H](CCC(=O)O)C(=O)O [L-glutamic acid], the pEC50_value (receptor grm1_human (GRM1, Q13255)) is listed as 5, the pEC50_value [9] is listed as 5.4 and the pKi_value [9] is listed as 4.9. The pEC50_value [10] was 5.4, the pKi_value [10] was 7.4 and the pEC50_value (receptor grm4_human (GRM4, Q14833)) was 5.5. For the same molecule, the pEC50_value (receptor grm5_human (GRM5, P41594)) was 5.5, the pEC50_value (receptor grm6_human (GRM6, O15303)) was 5.2 and the pEC50_value [11] was 3. The pKi_value [11] was 3.1, the pEC50_value [12] was 5.6 and the pIC50_value [12] was 5.7.

For C[C@H](O)C(=O)O [L-lactic acid], the pEC50_value (receptor hcar1_human (HCAR1), Hydroxycarboxylic acid receptors) is listed as 2.9.

For CCCCC/C=C\C[C@@H](O)/C=C/C=C/C=C\[C@@H](O)CCCC(=O)O [LTB4], the pEC50_value [5] is listed as 6.8, the pIC50_value [5] is listed as 7.6 and the pKd_value [5] is listed as 7.6. The pKi_value [6] was 9.4.

For CCCCC/C=C\C\C=C/C=C/C=C/[C@@H](SC[C@H](NC(=O)CC[C@H](N)C(=O)O)C(=O)NCC(=O)O)[C@@H](O)CCCC(=O)O [LTC4], the pEC50_value [13] is listed as 7.7, the pIC50_value [13] is listed as 6.5 and the pKi_value [13] is listed as 8.1. The pEC50_value [14] was 7.3 and the pIC50_value [14] was 8.5.

For CCCCC/C=C\C\C=C/C=C/C=C/[C@@H](SC[C@H](N)C(=O)NCC(=O)O)[C@@H](O)CCCC(=O)O [LTD4], the pEC50_value [13] is given as 8.5, the pIC50_value [13] is given as 8.1 and the pEC50_value [14] is given as 7.4. For the same molecule, the pIC50_value [14] was 8.1 and the pKi_value [14] was 8.1.

In the case of CCCCC/C=C\C\C=C/C=C/C=C/[C@@H](SC[C@H](N)C(=O)O)[C@@H](O)CCCC(=O)O [LTE4], the pEC50_value [13] is listed as 6.7, the pIC50_value [13] is listed as 7 and the pKi_value [13] is listed as 7.8. For the same molecule, the pEC50_value [14] was 5.9, the pIC50_value [14] was 5.7 and the pKi_value [14] was 6.5.

In the case of CCCCC[C@H](O)/C=C/C=C\C=C\C=C\[C@@H](O)[C@@H](O)CCCC(=O)O [LXA4], the pEC50_value [15] is listed as 12 and the pKd_value [15] is listed as 9.3.

For CCCCCCCC/C=C\CCCCCCCC(=O)NCCO [N-oleoylethanolamide], the pEC50_value (receptor GPR119 (gp119_human, Q8TDV5)) is listed as 6.3.

For CCCCCCCCCCCCCCCCOC[C@H](COP(=O)([O-])OCC[N+](C)(C)C)OC(C)=O [PAF], the pIC50_value [16] is listed as 8.2 and the pKi_value [16] is listed as 7.9.

In the case of CCCCC[C@H](O)/C=C/[C@H]1C(=O)C[C@H](O)[C@@H]1C/C=C\CCCC(=O)O [PGD2], the pKi_value [17] is given as 8.6, the pKi_value [18] is given as 9.2 and the pKi_value (receptor PTGER1 (pe2r1_human, P34995)) is given as 4.7. For the same molecule, the pKi_value [19] was 5, the pEC50_value [20] was 8.8 and the pKi_value [20] was 9. For the same molecule, the pKi_value [21] was 7.7.

For CCCCC[C@H](O)/C=C/[C@H]1[C@H](O)CC(=O)[C@@H]1C/C=C\CCCC(=O)O [PGE2], the pKi_value [17] is given as 5.3, the pKi_value [18] is given as 7 and the pKi_value [22] is given as 8. For the same molecule, the pKi_value [19] was 8.3, the pKd_value [23] was 8.7 and the pKi_value [23] was 9.5. For the same molecule, the pEC50_value [20] was 6.1, the pKi_value [20] was 9.1 and the pKi_value [21] was 6.9. The pKi_value [24] was 4.5.

In the case of CCCCC[C@H](O)/C=C/[C@@H]1[C@@H](C/C=C\CCCC(=O)O)[C@@H](O)C[C@H]1O [PGF2α], the pKi_value [17] is listed as 6.4, the pKi_value [18] is listed as 6.4 and the pKi_value [22] is listed as 6.3. For the same molecule, the pKi_value [19] was 6, the pKi_value [23] was 7.4 and the pEC50_value [20] was 6.1. For the same molecule, the pKi_value [20] was 9.5, the pKi_value [21] was 8.5 and the pKi_value [24] was 5.1.

For CCCCC[C@H](O)/C=C/[C@@H]1[C@H]2C/C(=C/CCCC(=O)O)O[C@H]2C[C@H]1O [PGI2], the pKi_value [22] is listed as 4.8, the pKi_value [20] is listed as 5.1 and the pKi_value (receptor pi2r_human (PTGIR), Prostanoid receptors) is listed as 7.8.

In the case of CCCCC[C@H](O)/C=C/[C@H]1C(=O)C=C[C@@H]1C/C=C\CCCC(=O)O [PGJ2], the pKi_value [17] is given as 8.2 and the pKi_value [18] is given as 9.

For CCCCC/C=C\C/C=C\C/C=C\C/C=C\CCCC(=O)OC(CO)CO [Peptide 2-arachidonoylglycerol], the pKi_value (receptor CNR2 (cnr2_human, P34972)) is listed as 6.8.

In the case of CCCCCCCC/C=C\CCCCCCCC(=O)OC(CO)COP(=O)(O)O (stereo not drawn) [Peptide 2-oleoyl-LPA], the pEC50_value (receptor gpr35_human (GPR35), Class A orphans) is listed as 7.5.
